Assays:
[1] = molecular target: T1, NMDA receptor glycine site, rat cortical membranes (Rattus norvegicus, UniProt P35439); experiment: [3H] MK-801 binding assay (MK-801 Glycine Site Binding Assay: Rat, Cortex); settings: potentiation of [3H]MK-801 binding (5 nM), 50 μM glutamate, 15 min @25° C.
T1 construct: well washed rat cortical membranes (200 μg); from tissue; host or cells: rat cerebral cortex membranes
Description: Assays were conducted as described in Moskal et al. (Moskal, J. R., Kuo, A. G., Weiss, C., Wood, P. L., O'Connor Hanson, A., Kelso, S., Harris, R. B., Disterhoft, S. F., 2005. GLYX-13: a monoclonal antibody-derived peptide that acts as an N-methyl-D-aspartate receptor modulator. Neuropharmacology. 49, 1077-87) The potentiation of [^3H]MK-801 binding (5 nM; 22.5 Ci/mmol) to well washed rat cortical membranes (200 μg) was measured under non-equilibrium conditions (15 min @25° C.) in the presence of increasing concentrations of test compounds and 50 μM glutamate. Zero levels were determined in the absence of any glycine ligand and in the presence of 30 μM 5.7 DCKA. Maximal stimulation was measured in the presence of 1 mM glycine, and 50 μM glutamate was present in all samples. The facilitation of [^3H]MK-801 binding by tests compounds was calculated by using a 3 parameter log agonist vs. response equation (Graph pad Prism, USA) and potency (EC50, expressed in pM) and maximal activity (% maximal stimulation) were calculated for the test compound.

LTP = LTP (long-term potentiation) augmentation; settings: LTP Concentration 1 uM

With `NC(=O)C(CO)N1CCCC12CNC2=O` (centres unmarked) [Compound X] the EC50 [1] was 2.43 nM and the “LTP: LTP Augmentation” value (LTP) was 75%.
